Series [1] can be described thus: Body weight / tolerability on chronic intermittent dosing. It is filed as in vivo. The settings on record: 8 weeks. The source says: In light of evidence that deficits in BDNF expression and TrkB signaling contribute to neurological dysfunction in mouse models of RTT ([Katz, 2014]), we next examined whether or not chronic treatment of Mecp2 mutant mice with PTX-BD4-3 would ameliorate disease phenotypes. For these studies, we used heterozygous (Het) female Mecp2 mutants, which, unlike male null mice, model the somatic mosaicism for normal and mutant MeCP2 that characterizes the human disease ([Katz et al., 2012]). Animals were treated once every 3 days (5 mg/kg, i.p.), beginning at 16 weeks of age, and neurological phenotypes were assessed at various time points up to 8 weeks of dosing. All tests were performed 24 h after the last treatment. Phenotypic assessments included whole-body plethysmography to quantify apneic breathing, a core feature of respiratory dysfunction in RTT, as well as a motor test battery.
Figure S2. Repeated dosing with PTX-BD4-3 (5 mg/kg, q72 hrs) had no
effect on body weight in either Wt or Het mice.
Initial Week 2 Week 4 Week 6 Week 8
Body weight (g) Wt Saline Wt BD4‐3
Disease Models & Mechanisms: doi:10.1242/dmm.044685: Supplementary information
Disease Models & Mechanisms • Supplementary information […]

Series [2] deals with heterozygous (Het) female Mecp2 mutant mice. The series is described as follows: Foot slip. The settings on record: chronic treatment, 24 h after last treatment (data not shown). It is filed as in vivo, mouse. On the procedure: Small-molecule compounds were diluted in saline and delivered by i.p. injection. To define the acute effects of single drug treatments, behavioral testing was initiated 1 h after dosing. Durable effects of single drug treatments were evaluated 24 h after dosing. To define the effects of repeated dosing, mice were treated once every 3 days (q72 h) for 4 or 8 weeks, and behavioral testing was performed 24 h after the last dose.
Foot slip was used to assess locomotor coordination and spontaneous movement on a challenging substrate. Animals were placed on an elevated wire mesh surface (50 cm^2) with 1 cm^2 openings and allowed to freely explore for 5 min ([Starkey et al., 2005]). Total distance traveled was measured by a computer-operated animal activity system (ANY-maze, Stoelting). The total number of forepaw and hindpaw slips, where the foot came completely through the grate with no toes remaining on the grid, was manually counted, and the number of slips/cm traveled was calculated.
Figure S3. Single administration of PTX-BD4-3 reduces foot slip errors in Het mice. Mice received a single injection of PTX-BD4-3 (P.1, P.5, P.50) one hour prior to the beginning of foot slip testing. n = 10-23 animals derived from 3 […]
***p<0.001 compared to saline-treated Wt mice (V, black bar), †p<0.05 compared to saline-treated Het mice (V, grey bar); One-Way ANOVA with LSD post-hoc analysis. […]

The record followed here is article PMC7710018, “Restoration of motor learning in a mouse model of Rett syndrome following long-term treatment with a novel small-molecule activator of TrkB” (Disease Models & Mechanisms, 2020).

`COCCN(C)C(=O)c1cc(C(=O)N(C)CCOC)cc(C(=O)N(C)CCOC)c1` [PTX-BD4-3, benzene-1,3,5-tricarboxylic acid tris-[(2-methoxy-ethyl)-methyl-amide]]: the “tolerability of chronic intermittent dosing” value in series [1] (5 mg/kg i.p. q72 h) was “well tolerated”. Moreover, in series [1] (Het mice, 5 mg/kg q72 h, vs saline-treated Het littermates), the body weight entry is recorded as “unchanged”. For the same molecule, the foot slip errors entry in series [2] is given as “no reduction”.
